Measured values: US20230157996A1, “SMALL-MOLECULE INHIBITOR TARGETING EB VIRUS NUCLEAR ANTIGEN PROTEIN, PREPARATION METHOD AND USE THEREOF” (priority 2020, published 2023)

These compounds were tested on C666-1 cells (assay: C666-1 cell viability single concentration (50 μM) inhibition rate (Resazurin)). Conditions: 50 μM compound, 72 hours, C666-1 cells.
Format: cell-based
Procedure, shortened: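 EBV-positive C666-1 cells (5×10^3/well), pre-cultured 24 h, were exposed to compound at 50 μmol/L final for 72 h at 37° C, 5% CO2, in duplicate. Viability by resazurin (3 h, ex 560/em 590 nm); inhibition rate computed relative to DMSO control and medium-only blank.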

For `O=C([O-])c1cccc(N2CC(Oc3ccc([N+](=O)[O-])cc3)C2)c1-n1cccc1.[Na+]` [Example 116, Sodium 3-(3-(4-nitrophenoxy)azetidin-1-yl)-2-(1H-pyrrol-1-yl)benzoate], the “C666-1 cell viability single concentration (50 μM) inhibition rate, Ratio* (Inh %)” value was “+ (*Inh %: <10% +)”.

Same assay, conditions: Homo sapiens, C6661, 72 h, 50 μM compound, 72 hours, C666-1 cells; read-out: C666-1 cell viability single concentration (50 μM) inhibition rate, Ratio* (Inh %)

`O=C(O)c1cccc(N2CC(Oc3ccc(CNCc4ccccc4)cc3)C2)c1-n1cccc1` [Example 365] and `O=C(O)c1cccc(N2CC(Oc3ccc(COc4ccccc4)cc3)C2)c1-n1cccc1` [Example 115, 3-(3-(4-(phenoxymethyl)phenoxy)azetidin-1-yl)-2-(1H-pyrrol-1-yl)benzoic acid] cannot be ordered by inhibition at 50 µM: under 10% for the first, under 10% for the second.

`COC(=O)c1cccc(C#CN(Cc2ccccc2F)S(=O)(=O)c2cccs2)c1-n1cccc1` [Example 324, Methyl 3-((N-(2-fluorobenzyl)thiophen-2-sulfonamido)ethynyl)-2-(1H-pyrrol-1-yl)benzoate] and `COC(=O)c1cccc(C#CN(Cc2ccccc2)S(=O)(=O)c2cccs2)c1-n1cccc1` [Example 322, Methyl 3-((N-benzylthiophen-2-sulfonamido)ethynyl)-2-(1H-pyrrol-1-yl)benzoate] fall in the same range of inhibition at 50 µM: 10 to 30% for the first, 10 to 30% for the second.

`COC(=O)c1cccc(N2CC(Oc3ccc(NC(=O)Nc4ccc(Cl)cc4)cc3)C2)c1-n1cccc1` [Example 128, Methyl 3-(3-(4-(3-(4-chlorophenyl)ureido)phenoxy)azetidin-1-yl)-2-(1H-pyrrol-1-yl)benzoate] and `COC(=O)c1cccc(N2CC(Oc3ccc(COc4ccc(Cl)cc4)cc3)C2)c1-n1cccc1` [Example 240, Methyl 3-(3-(4-((4-chlorophenoxy)methyl)phenoxy)azetidin-1-yl)-2-(1H-pyrrol-1-yl)benzoate] cannot be ordered by inhibition at 50 µM: under 10% for the first, under 10% for the second.

`COC(=O)c1cccc(N2CC(Oc3ccc(N(S(C)(=O)=O)S(C)(=O)=O)cc3)C2)c1-n1cccc1` [Example 124, Methyl 3-(3-(4-(N-(mesyl)methylsulfonamido)phenoxy)azetidin-1-yl)-2-(1H-pyrrol-1-yl)benzoate] and `COC(=O)c1cccc(N2CC(Oc3ccc(CNC(C)=O)cc3)C2)c1-n1cccc1` [Compound 76, Methyl 3-(3-(4-(acetylaminomethyl)phenoxy)azetidin-1-yl)-2-(1H-pyrrol-1-yl)benzoate] fall in the same range of inhibition at 50 µM: 10 to 30% for the first, 10 to 30% for the second.

First: COC(=O)c1cccc(N2CC(Oc3ccc(Oc4ccc(C(F)(F)F)cc4)cc3)C2)c1-n1cccc1 [Example 291, Methyl 3-(3-(4-(4-(trifluoromethyl)phenoxy)phenoxy)azetidin-1-yl)2-(1H-pyrrol-1-yl)benzoate]
Second: COC(=O)c1cccc(N2CC(Oc3ccc(Oc4ccc(C#N)cc4)cc3)C2)c1-n1cccc1 [Example 210, Methyl 3-(3-(4-(4-cyanophenoxy)phenoxy)azetidin-1-yl)-2-(1H-pyrrol-1-yl)benzoate]
The inhibition at 50 µM of the first is lower: under 10% for the first, 10 to 30% for the second.

Compared with `COC(=O)c1cccc(C#CN(Cc2ccccc2)S(=O)(=O)c2ccc(C)cc2)c1-n1cccc1` [Example 271, Methyl 3-(((N-benzyl-4-methylphenyl)sulfonamido)ethynyl)-2-(1H-pyrrol-1-yl)benzoate], `COC(=O)c1cccc(C#CN(Cc2cccs2)S(=O)(=O)c2ccc(C)cc2)c1-n1cccc1` [Example 328, Methyl 3-(((4-methyl-N-(thiophen-2-yl-methyl)phenyl)sulfonamido)ethynyl)-2-(1H-pyrrol-1-yl)benzoate] is lower in inhibition at 50 µM: over 50% for the first, 10 to 30% for the second.

`Nc1cccc(N2CC3(C2)CN(c2cccc(C(=O)O)c2N)C3)c1` [Compound 34, 2-amino-3-(6-(3aminophenyl)-2,6-diazaspiro[3.3]heptan-2-yl)benzoic acid] and `Cc1cc(OC2CN(c3cccc(C(=O)O)c3-n3cccc3)C2)ccc1CO` [Example 252, 3-(3-(4-(hydroxymethyl)-3-methylphenoxy)azetidin-1-yl)-2-(1H-pyrrol-1-yl)benzoic acid] cannot be ordered by inhibition at 50 µM: under 10% for the first, under 10% for the second.

First: O=C(O)c1cccc(N2CC(Oc3ccc(CO)cc3)C2)c1 [Compound 35, 3-(3-(4-(hydroxymethyl)phenoxy)azetidin-1-yl)benzoic acid]
Second: O=C(O)c1cccc(N2CC(Oc3ccc(CO)cc3)C2)c1-c1ccco1 [Example 276]
The inhibition at 50 µM of the first is higher: 10 to 30% for the first, under 10% for the second.

Compared with `O=C(O)c1cccc(N2CC(Oc3ccc(COc4cccnc4)cc3)C2)c1-n1cccc1` [Example 244, 3-(3-(4-((pyridin-3-yl-oxy)methyl)phenoxy)azetidin-1-yl)-2-(1H-pyrrol-1-yl)benzoic acid], `O=C(O)c1cccc(N2CC(Oc3ccc(COc4ccc(Cl)cc4)cc3)C2)c1-n1cccc1` [Example 241, 3-(3-(4-((4-chlorophenoxy)methyl)phenoxy)azetidin-1-yl)-2-(1H-pyrrol-1-yl)benzoic acid] is lower in inhibition at 50 µM: 30 to 50% for the first, under 10% for the second.

`COCCOc1ccc(OC2CN(c3cccc(C(=O)OC)c3-n3cccc3)C2)cc1OCCOC` [Example 306, Methyl 3-(3-(3,4-bis(2-methoxyethoxy)phenoxy)azetidin-1-yl)-2-(1H-pyrrol-1-yl)benzoate] and `COCCOCc1ccc(OC2CN(c3cccc(C(=O)O)c3-n3cccc3)C2)cc1OCCOC` [Example 367, 3-(3-(3-(2-methoxyethoxy)-4-((2-methoxyethoxy)methyl)phenoxy)azetidin-1-yl)-2-(1H-pyrrol-1-yl)benzoic acid] cannot be ordered by inhibition at 50 µM: under 10% for the first, under 10% for the second.

First: COC(=O)c1cccc(N2CC(Oc3ccc(NC(=S)Nc4cccc(C#N)c4)cc3)C2)c1-n1cccc1 [Example 228, Methyl 3-(3-(4-(3-(3-cyanophenyl)thioureido)phenoxy)azetidin-1-yl)-2-(1H-pyrrol-1-yl)benzoate]
Second: COC(=O)c1cccc(N2CC(Oc3ccc(NC(=O)c4cccs4)cc3)C2)c1-n1cccc1 [Example 122, Methyl 2-(1H-pyrrol-1-yl)-3-(3-(4-(thiophene-2-formamido)phenoxy)azetidin-1-yl)benzoate]
The inhibition at 50 µM of the first is higher: over 50% for the first, 10 to 30% for the second.

First: O=C(NC1CN(c2cccc(C(=O)O)c2-n2cccc2)C1)c1ccccc1[N+](=O)[O-] [Example 181, 3-(3-(2-nitrobenzamido)azetidin-1-yl)-2-(1H-pyrrol-1-yl)benzoic acid]
Second: COC(=O)c1cccc(N2CC(NC(=O)c3ccccc3)C2)c1-n1cccc1 [Example 178, Methyl 3-(3-benzamidoazetidin-1-yl)-2-(1H-pyrrol-1-yl)benzoate]
The inhibition at 50 µM of the first is lower: under 10% for the first, 10 to 30% for the second.

Compared with `COC(=O)c1cccc(N2CC(Oc3ccc(COC4CCOCC4)cc3)C2)c1-n1cccc1` [Example 113, Methyl 2-(1H-pyrrol-1-yl)-3-(3-(4-(((tetrahydro-2H-pyran-4-yl)oxy)methyl)phenoxy)azetidin-1-yl)benzoate], `COC(=O)c1cccc(N2CC(OCc3ccc(OC)cc3)C2)c1-n1cccc1` [Example 139, Methyl 3-(3-((4-methoxybenzyl)oxy)azetidin-1-yl)-2-(1H-pyrrol-1-yl)benzoate] is lower in inhibition at 50 µM: over 50% for the first, under 10% for the second.

`COC(=O)c1cccc(N2CC(Oc3ccc(NC(=O)NC4CCCCC4)cc3)C2)c1-n1cccc1` [Example 130, Methyl 3-(3-(4-(3-cyclohexylureido)phenoxy)azetidin-1-yl)-2-(1H-pyrrol-1-yl)benzoate] and `CCCCCCNC(=O)Nc1ccc(OC2CN(c3cccc(C(=O)OC)c3-n3cccc3)C2)cc1` [Example 132, Methyl 3-(3-(4-(3-hexylureido)phenoxy)azetidin-1-yl)-2-(1H-pyrrol-1-yl)benzoate] cannot be ordered by inhibition at 50 µM: under 10% for the first, under 10% for the second.

`O=C(O)c1cccc(N2CC(Oc3ccc(COc4ccc(F)cc4)cc3)C2)c1-n1cccc1` [Example 246, 3-(3-(4-((4-fluorophenoxy)methyl)phenoxy)azetidin-1-yl)-2-(1H-pyrrol-1-yl)benzoic acid] and `CS(=O)(=O)Nc1nc(-c2ccc(OC3CN(c4cccc(C(=O)O)c4-n4cccc4)C3)cc2)cs1` [Example 262, 3-(3-(4-(2-(methylsulfonamido)thiazol-4-yl)phenoxy)azetidin-1-yl)-2-(1H-pyrrol-1-yl)benzoic acid] cannot be ordered by inhibition at 50 µM: under 10% for the first, under 10% for the second.

First: COC(=O)c1cccc(C#CN(Cc2ccc(F)cc2)S(=O)(=O)c2cccs2)c1-n1cccc1 [Example 326, Methyl 3-((N-(4-fluorobenzyl)thiophen-2-sulfonamido)ethynyl)-2-(1H-pyrrol-1-yl)benzoate]
Second: COC(=O)c1cccc(C#CN2Cc3ccccc3S2(=O)=O)c1-n1cccc1 [Example 270]
The inhibition at 50 µM of the first is higher: 30 to 50% for the first, under 10% for the second.

Compared with `COC(=O)c1cccc(-c2cn(-c3ccc(CO)cc3)nn2)c1-c1ccc2cc[nH]c2c1` [Example 269, Methyl 3-(1-(4-(hydroxymethyl)phenyl)-1H-1,2,3-triazol-4-yl)-2-(1H-indol-6-yl)benzoate], `COC(=O)c1cccc(N2CC(Oc3ccc(CO)cc3)C2)c1-c1ccccc1` [Compound 41, Methyl 6-(3-(4-(hydroxymethyl)phenoxy)azetidin-1-yl)-[1,1′-biphenyl]-2-formate] is lower in inhibition at 50 µM: 30 to 50% for the first, 10 to 30% for the second.

First: COC(=O)c1cccc(N2CC(NS(=O)(=O)C3CC3)C2)c1-n1cccc1 [Example 182, Methyl 3-(3-(cyclopropylsulfonamido)azetidin-1-yl)-2-(1H-pyrrol-1-yl)benzoate]
Second: O=C(O)c1cccc(N2CC(Oc3ccc(CO)cc3)C2)c1-c1cc(F)cc(F)c1 [Compound 62, 3′,5′-difluoro-6-(3-(4-(hydroxymethyl)phenoxy)azetidin-1-yl)-[1,1′-biphenyl]-2-formic acid]
The inhibition at 50 µM of the first is higher: 10 to 30% for the first, under 10% for the second.

Same assay, conditions: Homo sapiens, C6661, 72 h, read-out: C666-1 cell viability single concentration (50 μM) inhibition rate, Ratio* (Inh %)

Compared with `COc1ccc(CN(C#Cc2cccc(C(=O)O)c2-n2cccc2)S(=O)(=O)c2ccc(C)cc2)cc1` [Example 386], `Cc1ccc(S(=O)(=O)N(C#Cc2cccc(C(=O)O)c2-n2cccc2)Cc2ccco2)cc1` [Example 315, Lithium 3-(((N-(furan-2-yl-methyl)-4-methylphenyl)sulfonamido)ethynyl)-2-(1H-pyrrol-1-yl)benzoate] is higher in inhibition at 50 µM: under 10% for the first, over 50% for the second.
